Experimental data: PubChem BioAssay (NCI)
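GI50 = concentration required for 50% inhibition of growth. TGI: total growth inhibition.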

How the values were obtained:
Assay in all cases: NCI tumour cell line growth inhibition, 384-well format
SF-268 CNS = test system: SF-268 CNS
PC-3 prostate = test system: PC-3 prostate
BT-549 breast = test system: BT-549 breast
CCRF-CEM leukemia = test system: CCRF-CEM leukemia
M14 melanoma = test system: M14 melanoma
U251 glioblastoma = test system: U251 glioblastoma
SK-MEL-2 melanoma = test system: SK-MEL-2 melanoma
TK-10 renal = test system: TK-10 renal
NCI-H460 NSCLC = test system: NCI-H460 NSCLC
RPMI-8226 leukemia = test system: RPMI-8226 leukemia
CAKI-1 renal = test system: CAKI-1 renal
NCI-H226 lung = test system: NCI-H226 lung
OVCAR-8 ovarian = test system: OVCAR-8 ovarian
HCC-2998 colon = test system: HCC-2998 colon
RXF 393 renal = test system: RXF 393 renal
MOLT-4 leukemia = test system: MOLT-4 leukemia
SK-MEL-5 melanoma = test system: SK-MEL-5 melanoma
OVCAR-4 ovarian = test system: OVCAR-4 ovarian
MALME-3M melanoma = test system: MALME-3M melanoma
HCT-15 colon = test system: HCT-15 colon
IGROV1 ovarian = test system: IGROV1 ovarian
A549 NSCLC = test system: A549 NSCLC
KM12 colon = test system: KM12 colon
MCF7 breast = test system: MCF7 breast
HT29 colon = test system: HT29 colon
SK-MEL-28 melanoma = test system: SK-MEL-28 melanoma
A498 renal = test system: A498 renal
UO-31 renal = test system: UO-31 renal
UACC-257 melanoma = test system: UACC-257 melanoma
NCI-H322M lung = test system: NCI-H322M lung
SF-539 CNS = test system: SF-539 CNS
HL-60(TB) leukemia = test system: HL-60(TB) leukemia
SR leukemia = test system: SR leukemia
786-0 renal = test system: 786-0 renal
MDA-MB-435 melanoma = test system: MDA-MB-435 melanoma
SK-OV-3 ovarian = test system: SK-OV-3 ovarian
NCI-H522 lung = test system: NCI-H522 lung
UACC-62 melanoma = test system: UACC-62 melanoma
HOP-92 NSCLC = test system: HOP-92 NSCLC
OVCAR-5 ovarian = test system: OVCAR-5 ovarian
K-562 leukemia = test system: K-562 leukemia
MDA-MB-468 breast = test system: MDA-MB-468 breast
LOX IMVI melanoma = test system: LOX IMVI melanoma
SF-295 CNS = test system: SF-295 CNS
T-47D breast = test system: T-47D breast

Cc1c(Nc2nccc3cc(CN4CC[C@@H](O)C4)cnc23)cccc1-c1cccc(-c2nc3cc(CN4CC[C@@H](C(=O)O)C4)cc(C#N)c3o2)c1C
GI50 (SF-268 CNS): 371 nM
TGI (SF-268 CNS): 3960 nM
GI50 (PC-3 prostate): 403 nM
TGI (PC-3 prostate): 1750 nM
GI50 (BT-549 breast): 140 nM
TGI (BT-549 breast): 532 nM
GI50 (CCRF-CEM leukemia): 147 nM
TGI (CCRF-CEM leukemia): 287 nM
GI50 (M14 melanoma): 259 nM
TGI (M14 melanoma): 866 nM
GI50 (U251 glioblastoma): 335 nM
TGI (U251 glioblastoma): 1150 nM
GI50 (SK-MEL-2 melanoma): 26.2 nM
TGI (SK-MEL-2 melanoma): 142 nM
GI50 (TK-10 renal): 1660 nM
TGI (TK-10 renal): > 100000 nM
GI50 (NCI-H460 NSCLC): 193 nM
TGI (NCI-H460 NSCLC): 435 nM
GI50 (RPMI-8226 leukemia): 152 nM
TGI (RPMI-8226 leukemia): 290 nM
GI50 (CAKI-1 renal): 464 nM
TGI (CAKI-1 renal): > 100000 nM
GI50 (NCI-H226 lung): 449 nM
TGI (NCI-H226 lung): 3730 nM
GI50 (OVCAR-8 ovarian): 514 nM
TGI (OVCAR-8 ovarian): 1830 nM
GI50 (HCC-2998 colon): 318 nM
TGI (HCC-2998 colon): 1250 nM
GI50 (RXF 393 renal): 137 nM
TGI (RXF 393 renal): 390 nM
GI50 (MOLT-4 leukemia): 171 nM
TGI (MOLT-4 leukemia): 315 nM
GI50 (SK-MEL-5 melanoma): 94.8 nM
TGI (SK-MEL-5 melanoma): 321 nM
GI50 (OVCAR-4 ovarian): 459 nM
TGI (OVCAR-4 ovarian): 4980 nM
GI50 (MALME-3M melanoma): 127 nM
TGI (MALME-3M melanoma): 851 nM
GI50 (HCT-15 colon): 1530 nM
TGI (HCT-15 colon): 3010 nM
GI50 (IGROV1 ovarian): 1070 nM
TGI (IGROV1 ovarian): > 100000 nM
GI50 (A549 NSCLC): 441 nM
TGI (A549 NSCLC): 2970 nM
GI50 (KM12 colon): 69.7 nM
TGI (KM12 colon): 679 nM
GI50 (MCF7 breast): 223 nM
TGI (MCF7 breast): 1430 nM
GI50 (HT29 colon): 213 nM
TGI (HT29 colon): 496 nM
GI50 (SK-MEL-28 melanoma): 261 nM
TGI (SK-MEL-28 melanoma): 1620 nM
GI50 (A498 renal): 391 nM
TGI (A498 renal): 1490 nM
GI50 (UO-31 renal): 3250 nM
TGI (UO-31 renal): > 100000 nM
GI50 (UACC-257 melanoma): 229 nM
TGI (UACC-257 melanoma): 1040 nM
GI50 (NCI-H322M lung): 416 nM
TGI (NCI-H322M lung): > 100000 nM
GI50 (SF-539 CNS): 274 nM
TGI (SF-539 CNS): 971 nM
GI50 (HL-60(TB) leukemia): 172 nM
TGI (HL-60(TB) leukemia): 314 nM
GI50 (SR leukemia): 28.9 nM
TGI (SR leukemia): 107 nM
GI50 ([…]-0 renal): 334 nM
TGI (786-0 renal): 1260 nM
GI50 (MDA-MB-435 melanoma): 47.3 nM
TGI (MDA-MB-435 melanoma): 206 nM
GI50 (SK-OV-3 ovarian): 246 nM
TGI (SK-OV-3 ovarian): 1180 nM
GI50 (NCI-H522 lung): 118 nM
TGI (NCI-H522 lung): 287 nM
GI50 (UACC-62 melanoma): 304 nM
TGI (UACC-62 melanoma): 1850 nM
GI50 (HOP-92 NSCLC): 297 nM
TGI (HOP-92 NSCLC): 1970 nM
GI50 (OVCAR-5 ovarian): 522 nM
TGI (OVCAR-5 ovarian): > 100000 nM
GI50 (K-562 leukemia): 205 nM
TGI (K-562 leukemia): 567 nM
GI50 (MDA-MB-468 breast): 117 nM
TGI (MDA-MB-468 breast): 310 nM
GI50 (LOX IMVI melanoma): 668 nM
TGI (LOX IMVI melanoma): 1860 nM
GI50 (SF-295 CNS): 416 nM
TGI (SF-295 CNS): 1450 nM
GI50 (T-47D breast): 325 nM
TGI (T-47D breast): > 100000 nM
